# Data taken from patent US9732075B2, “Benzimidazole-proline derivatives” (IDORSIA PHARMACEUTICALS LTD, priority 2012, dated 2017).
# Legend:
# [1] = biological target: human orexin-1 receptor (Homo sapiens (Human), UniProt O43613); experiment: In vitro assay: intracellular calcium measurements (FLIPR), antagonistic activity; type: cell-based; conditions: CHO cells expressing human orexin-1 receptor, orexin-A agonist, geometric mean, read-out: IC50 Ox1
# How it was run: (§1)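 Orexin-A-evoked calcium rise (3 nM final, roughly EC70) was recorded with fluo-4 in recombinant CHO cells, human receptor subtype 1 or 2.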
# [2] = biological target: human orexin-2 receptor (Homo sapiens (Human), UniProt O43614); experiment: as above; type: cell-based; conditions: CHO cells expressing human orexin-2 receptor, orexin-A agonist, geometric mean, read-out: IC50 Ox2
# How it was run: as §1
# Chain of human orexin-1 receptor (O43613 whole entry): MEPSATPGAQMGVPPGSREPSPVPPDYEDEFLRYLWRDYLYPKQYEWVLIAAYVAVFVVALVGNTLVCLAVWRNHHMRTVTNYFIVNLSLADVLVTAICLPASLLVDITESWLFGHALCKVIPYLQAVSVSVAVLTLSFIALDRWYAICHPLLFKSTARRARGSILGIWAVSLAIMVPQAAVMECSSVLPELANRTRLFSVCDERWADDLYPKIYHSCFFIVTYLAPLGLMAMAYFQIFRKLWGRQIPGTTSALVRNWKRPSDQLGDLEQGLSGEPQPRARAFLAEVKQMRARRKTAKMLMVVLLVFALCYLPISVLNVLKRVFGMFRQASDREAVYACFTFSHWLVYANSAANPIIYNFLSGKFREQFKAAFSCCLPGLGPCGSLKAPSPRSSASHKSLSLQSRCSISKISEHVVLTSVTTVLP
# Chain of human orexin-2 receptor (O43614 whole entry): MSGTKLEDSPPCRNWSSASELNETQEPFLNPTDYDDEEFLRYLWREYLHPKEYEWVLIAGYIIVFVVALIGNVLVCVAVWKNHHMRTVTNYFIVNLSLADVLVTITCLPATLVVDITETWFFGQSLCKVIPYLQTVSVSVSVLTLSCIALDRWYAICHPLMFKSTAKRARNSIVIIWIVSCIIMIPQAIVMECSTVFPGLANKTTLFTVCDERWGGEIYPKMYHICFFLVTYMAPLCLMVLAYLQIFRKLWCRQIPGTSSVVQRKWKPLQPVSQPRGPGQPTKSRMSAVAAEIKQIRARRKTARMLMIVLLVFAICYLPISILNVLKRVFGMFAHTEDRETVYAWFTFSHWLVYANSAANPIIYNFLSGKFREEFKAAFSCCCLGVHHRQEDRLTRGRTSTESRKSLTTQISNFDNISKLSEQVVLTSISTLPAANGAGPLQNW
IC50 [1] [nM],IC50 [2] [nM],Structure (SMILES)
29,4660,Cc1cc(F)ccc1-c1nc(C(=O)N2CCC[C@@]2(C)c2nc3c(C)c(Cl)ccc3[nH]2)c(-c2ccc(F)cc2)s1 [Ex. 5.259]
146,80,C=C1C[C@@H](c2nc3cc(OC)ccc3[nH]2)N(C(=O)c2nc(C3CC3)sc2-c2ccc(C)cc2)C1 [Ex. 6.35]
20,15,C=C1CC(c2nc3cc(SC)ccc3[nH]2)N(C(=O)c2nc(C3CC3)sc2-c2cccc(C)c2)C1 (centres unmarked) [Ex. 6.88]
5,8,Cc1c(Cl)ccc2c1nc([C@]1(C)CCCN1C(=O)c1ccccc1-n1nccn1)n2C [Ex. 7.19]
6,16,Cc1ccc(-n2nccn2)c(C(=O)N2CCC[C@@]2(C)c2nc3cc(C)c(C)cc3[nH]2)c1 [Ex. 5.10]
22,494,Cc1nc(C(=O)N2CCC[C@@]2(C)c2nc3cc(OC(F)(F)F)ccc3[nH]2)c(-c2ccc(F)cc2)s1 [Ex. 5.248]
16,0.7,C=C1C[C@@H](c2nc3cccc(C)c3[nH]2)N(C(=O)c2nc(C)sc2-c2cccc(OC)c2)C1 [Ex. 6.114]
58,223,COc1ccc(-n2nccn2)c(C(=O)N2CCC[C@@]2(C)c2nc3cc(OC(F)(F)F)ccc3[nH]2)c1 [Ex. 5.237]
4,2,C=C1CC(c2nc3c(C)c(C)ccc3[nH]2)N(C(=O)c2nc(C3CC3)sc2-c2cccc(C)c2)C1 (racemic) [Ex. 6.92]
330,7,C=C1C[C@@H](c2nc3cc(C(C)(C)C)ccc3[nH]2)N(C(=O)c2ccccc2-n2nccn2)C1 [Ex. 6.162]
42,261,C[C@@]1(c2nc3cc(C(F)(F)F)ccc3[nH]2)CCCN1C(=O)c1cc(C#N)ccc1-n1nccn1 [Ex. 5.180]
69,92,C=C1C[C@@H](c2nc3cc(OC)ccc3[nH]2)N(C(=O)c2nc(N3CCCC3)sc2-c2cccc(F)c2)C1 [Ex. 6.29]
134,7,C=C1C[C@@H](c2nc3cc(C)c(C)cc3[nH]2)N(C(=O)c2c(F)cccc2-n2nccn2)C1 [Ex. 6.191]
33,33,COc1cc2nc([C@]3(C)CCCN3C(=O)c3cc(Cl)ccc3-n3nccn3)n(C)c2cc1OC [Ex. 7.24]
34,82,COc1ccc(-c2ccccc2C(=O)N2CCC[C@@]2(C)c2nc3cc(C)c(C)cc3[nH]2)cc1 [Ex. 5.102]
3,9,C=C1CC(c2nc3c(C)c(C)ccc3[nH]2)N(C(=O)c2cc(C)sc2-c2ccc(C)c(C)c2)C1 (centres unmarked) [Ex. 6.77]
92,704,C[C@@]1(c2nc3cc(C(F)(F)F)ccc3[nH]2)CCCN1C(=O)c1cc(C(F)(F)F)ccc1-n1nccn1 [Ex. 5.172]
368,1120,Cc1cccc(C(=O)N2CCC[C@@]2(C)c2nc3cc(C(F)(F)F)ccc3[nH]2)c1-n1nccn1 [Ex. 5.179]

IC50 [1] [nM],IC50 [2] [nM],Structure (SMILES)
13,402,Cc1c(Cl)ccc2[nH]c([C@]3(C)CCCN3C(=O)c3nc(-c4ccccc4Cl)sc3-c3ccc(F)cc3)nc12 [Ex. 5.256]
74,16,C=C1C[C@@H](c2nc3cccc(C)c3[nH]2)N(C(=O)c2nc(C)sc2-c2cc(C)cc(C)c2)C1 [Ex. 6.107]
25,37,Cc1cccc(-c2ccccc2C(=O)N2CCC[C@@]2(C)c2nc3cc(C)c(C)cc3[nH]2)c1 [Ex. 5.106]
1530,61,C=C1C[C@@H](c2nc3cc(OC)ccc3[nH]2)N(C(=O)c2c(F)cccc2-n2nccn2)C1 [Ex. 6.19]
36,208,C=C1CC(c2nc3cc(Cl)c(C(F)(F)F)cc3[nH]2)N(C(=O)c2cc(C)sc2-c2ccc(C)c(C)c2)C1 (centres unmarked) [Ex. 6.82]
28,28,COc1cc2nc([C@]3(C)CCCN3C(=O)c3cc(C)ccc3-n3nccn3)n(C)c2cc1OC [Ex. 7.9]
63,197,Cc1ccc(-n2nccn2)c(C(=O)N2CCC[C@@]2(C)c2nc3cc(C(F)(F)F)ccc3[nH]2)c1F [Ex. 5.169]
62,641,Cc1nc(C(=O)N2CCC[C@@]2(C)c2nc3cc(OC(F)(F)F)ccc3[nH]2)c(-c2cccc(Cl)c2Cl)s1 [Ex. 5.244]
300,126,COc1cc2nc([C@]3(C)CCCN3C(=O)c3sc(C)nc3-c3ccc(C)cc3)[nH]c2cc1OC [Ex. 5.75]
28,533,Cc1nc(C(=O)N2CCC[C@@]2(C)c2nc3cc(OC(F)(F)F)ccc3[nH]2)c(-c2cc(F)cc(F)c2)s1 [Ex. 5.246]
27,159,Cc1nc(C(=O)N2CCC[C@@]2(C)c2nc3c(F)c(F)ccc3[nH]2)c(-c2ccc(Cl)cc2)s1 [Ex. 5.211]
3,6,Cc1cc(C(=O)N2CCC[C@@]2(C)c2nc3cc(C)c(C)cc3[nH]2)c(-n2nccn2)cc1C [Ex. 5.58]
767,62,C=C1C[C@@H](c2nc3c(OC)ccc(OC)c3[nH]2)N(C(=O)c2cc(C)ccc2-n2nccn2)C1 [Ex. 6.68]
24,355,Cc1ccc(-n2cccn2)c(C(=O)N2CCC[C@@]2(C)c2nc3cc(C(F)(F)F)ccc3[nH]2)c1 [Ex. 5.175]
15,19,COc1cccc(-c2ccc(C)cc2C(=O)N2CCC[C@@]2(C)c2nc3cc(C)c(C)cc3[nH]2)c1 [Ex. 5.93]
16,162,COc1ccc(-n2nccn2)c(C(=O)N2C[C@H](OC)C[C@H]2c2nc3ccc(Cl)c(C)c3n2C)c1 [Ex. 7.1]
4,11,Cc1ccc(-c2ccccn2)c(C(=O)N2CCC[C@@]2(C)c2nc3c(C)c(Cl)ccc3[nH]2)c1 [Ex. 5.215]

# The next lines start with the compound.
Structure (SMILES),IC50 [1] [nM],IC50 [2] [nM]
COc1ccc2nc([C@@H]3C[C@@H](OC)CN3C(=O)c3ccc(C)cc3-n3nccn3)[nH]c2c1 [Ex. 3.21],2510,33
CSc1cccc2nc([C@@H]3CCCN3C(=O)c3cnc(C)nc3-c3ccc(C)c(C)c3)[nH]c12 [Ex. 1.85],5,23
CSc1ccc2nc([C@@H]3CCCN3C(=O)c3cnc(C)nc3-c3ccc(Br)c(Cl)c3)[nH]c2c1 [Ex. 1.58],32,24
Cc1nc(C(=O)N2CCCC2c2nc3cc(C(F)(F)F)ccc3[nH]2)c(-c2ccccc2)s1 (centres unmarked) [Ex. 1.121],76,287
"CO[C@H]1C[C@@H](c2nc3ccc(Cl)c(C)c3[nH]2)N(C(=O)c2cc(C)ccc2-n2nccn2)C1 [Example 3.1, ((2S,4S)-2-(6-chloro-7-methyl-1H-benzo[d]imidazol-2-yl)-4-methoxypyrrolidin-1-yl)(5-methyl-2-(2H-1,2,3-triazol-2-yl)phenyl)methanone]",102,69
CO[C@@H]1C[C@@H](c2nc3c(C)cccc3[nH]2)N(C(=O)c2nc(C)sc2-c2cccc(Cl)c2)C1 [Ex. 3.7],9,5
CO[C@@H]1C[C@@H](c2nc3c(C)c(Cl)ccc3[nH]2)N(C(=O)c2nc(C)sc2-c2cccc(Cl)c2)C1 [Ex. 3.9],1,2
Cc1ccc(-n2nccn2)c(C(=O)N2CC[C@H](C)[C@H]2c2nc3c(Cl)cccc3[nH]2)c1 [Ex. 4.36],70,2740
COc1ccc(-n2nccn2)c(C(=O)N2CCC[C@H]2c2nc3cccc(SC)c3[nH]2)c1 [Ex. 1.166],45,4
Cc1nc(C(=O)N2CC[C@H](C)[C@H]2c2nc3cc(C(F)(F)F)ccc3[nH]2)c(-c2ccc(Cl)cc2)s1 [Ex. 4.139],5,2260
Cc1nc(C(=O)N2CC[C@H](C)[C@H]2c2nc3c(Cl)cccc3[nH]2)c(-c2ccc(Br)cc2)s1 [Ex. 4.123],21,871
Cc1nc(C(=O)N2CCCC2c2nc3cc(Cl)c(C)cc3[nH]2)c(-c2cccc(Cl)c2)s1 (centres unmarked) [Ex. 1.101],21,50
CSc1ccc2nc([C@@H]3CCCN3C(=O)c3nc(C)sc3-c3ccc(Br)cc3)[nH]c2c1 [Ex. 1.34],124,56
Cc1nc(C(=O)N2CC[C@H](C)[C@H]2c2nc3cc(Cl)c(C)cc3[nH]2)c(-c2cccc(Cl)c2)s1 [Ex. 4.15],2,670
CSc1cccc2nc([C@@H]3CCCN3C(=O)c3nccnc3-c3cc(C)cc(F)c3)[nH]c12 [Ex. 1.74],52,100
CO[C@@H]1C[C@@H](c2nc3c(C)cccc3[nH]2)N(C(=O)c2nc(C)sc2-c2ccccc2)C1 [Ex. 3.4],44,14
Cc1ccc(-c2ccccc2C(=O)N2CC[C@H](C)[C@H]2c2nc3cc(Cl)c(C)cc3[nH]2)cc1 [Ex. 4.77],5,790
COc1ccc(-n2nccn2)c(C(=O)N2CCC[C@@]2(C)c2nc3cc(C)c(C)cc3[nH]2)c1 [Ex. 5.54],33,20
CSc1ccc2[nH]c([C@@H]3CCCN3C(=O)c3cc(C)ccc3-n3cccn3)nc2c1 [Ex. 1.177],842,30
Cc1c(Cl)ccc2[nH]c([C@@H]3[C@@H](C)CCN3C(=O)c3cc(Cl)ccc3-c3ccccc3)nc12 [Ex. 4.162],2,299
CO[C@@H]1C[C@@H](c2nc3c(C)c(Cl)ccc3[nH]2)N(C(=O)c2nc(C)sc2-c2ccccc2)C1 [Ex. 3.6],5,4
CSc1cccc2nc([C@@H]3CCCN3C(=O)c3nc(C)sc3-c3cccc(F)c3)[nH]c12 [Ex. 1.65],63,147
Cc1nc(C(=O)N2CCCC2c2nc3c(C)c(Cl)ccc3[nH]2)c(-c2cccc(Cl)c2)s1 (centres unmarked) [Ex. 1.109],5,10
